Assay [1] has as its target Nitric oxide synthase 1 (Homo sapiens, UniProt P29475). The experiment in a line: Inhibition of human nNOS expressed in Sf9 cells assessed as reduction in conversion of [3H]L-arginine to [3H]L-citrulline preincubated for 15 mins by radiometric method.
The target of assay [2] is Voltage-gated inwardly rectifying potassium channel KCNH2 (Homo sapiens, UniProt Q12809). Briefly: Inhibition of human ERG expressed in HEK293 cells at -80 mV holding potential assessed as reduction in tail current amplitude by conventional patch clamp assay. Format: cell-based. (In general: Patch clamp records ionic current or voltage across a cell membrane.)
Sequence of Voltage-gated inwardly rectifying potassium channel KCNH2 (Q12809 whole entry): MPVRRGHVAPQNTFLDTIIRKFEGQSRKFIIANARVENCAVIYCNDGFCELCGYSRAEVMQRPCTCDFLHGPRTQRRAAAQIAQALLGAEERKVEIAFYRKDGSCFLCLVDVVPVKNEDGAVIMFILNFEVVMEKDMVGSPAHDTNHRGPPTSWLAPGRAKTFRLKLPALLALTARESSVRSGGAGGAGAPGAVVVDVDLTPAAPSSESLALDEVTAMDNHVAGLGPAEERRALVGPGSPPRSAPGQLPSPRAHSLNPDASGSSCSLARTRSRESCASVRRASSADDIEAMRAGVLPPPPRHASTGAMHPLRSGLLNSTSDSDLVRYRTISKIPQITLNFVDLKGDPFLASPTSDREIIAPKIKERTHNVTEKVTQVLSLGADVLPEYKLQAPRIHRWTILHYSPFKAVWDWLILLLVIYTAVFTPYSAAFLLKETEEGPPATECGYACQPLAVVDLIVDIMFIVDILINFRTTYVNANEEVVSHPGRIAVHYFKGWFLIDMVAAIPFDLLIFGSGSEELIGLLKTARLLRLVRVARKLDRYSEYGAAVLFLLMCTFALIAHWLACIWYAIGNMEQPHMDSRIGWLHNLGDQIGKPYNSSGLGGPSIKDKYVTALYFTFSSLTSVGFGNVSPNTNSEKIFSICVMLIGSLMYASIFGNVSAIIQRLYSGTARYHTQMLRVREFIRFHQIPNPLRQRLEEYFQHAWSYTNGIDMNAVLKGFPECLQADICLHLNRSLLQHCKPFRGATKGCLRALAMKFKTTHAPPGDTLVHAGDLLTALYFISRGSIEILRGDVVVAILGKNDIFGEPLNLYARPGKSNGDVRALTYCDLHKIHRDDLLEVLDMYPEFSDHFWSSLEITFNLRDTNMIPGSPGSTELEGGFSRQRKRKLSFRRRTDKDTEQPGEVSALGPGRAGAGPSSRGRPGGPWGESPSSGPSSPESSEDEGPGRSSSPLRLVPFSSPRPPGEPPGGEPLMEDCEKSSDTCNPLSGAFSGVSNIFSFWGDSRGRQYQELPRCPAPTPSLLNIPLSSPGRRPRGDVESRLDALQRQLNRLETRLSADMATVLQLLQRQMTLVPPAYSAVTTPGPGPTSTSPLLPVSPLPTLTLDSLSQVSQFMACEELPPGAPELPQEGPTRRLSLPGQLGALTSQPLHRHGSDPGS
Assay [3] has as its target Nitric oxide synthase, inducible (Homo sapiens, UniProt P35228). The experiment in a line: Inhibition of human recombinant iNOS expressed in Sf9 cells assessed as reduction in conversion of [3H]L-arginine to [3H]L-citrulline preincubated for 15 mins by radiometric method.
The target of assay [4] is T1, Nitric oxide synthase 3 (Homo sapiens, UniProt P29474).
T1 sequence (P29474 whole entry): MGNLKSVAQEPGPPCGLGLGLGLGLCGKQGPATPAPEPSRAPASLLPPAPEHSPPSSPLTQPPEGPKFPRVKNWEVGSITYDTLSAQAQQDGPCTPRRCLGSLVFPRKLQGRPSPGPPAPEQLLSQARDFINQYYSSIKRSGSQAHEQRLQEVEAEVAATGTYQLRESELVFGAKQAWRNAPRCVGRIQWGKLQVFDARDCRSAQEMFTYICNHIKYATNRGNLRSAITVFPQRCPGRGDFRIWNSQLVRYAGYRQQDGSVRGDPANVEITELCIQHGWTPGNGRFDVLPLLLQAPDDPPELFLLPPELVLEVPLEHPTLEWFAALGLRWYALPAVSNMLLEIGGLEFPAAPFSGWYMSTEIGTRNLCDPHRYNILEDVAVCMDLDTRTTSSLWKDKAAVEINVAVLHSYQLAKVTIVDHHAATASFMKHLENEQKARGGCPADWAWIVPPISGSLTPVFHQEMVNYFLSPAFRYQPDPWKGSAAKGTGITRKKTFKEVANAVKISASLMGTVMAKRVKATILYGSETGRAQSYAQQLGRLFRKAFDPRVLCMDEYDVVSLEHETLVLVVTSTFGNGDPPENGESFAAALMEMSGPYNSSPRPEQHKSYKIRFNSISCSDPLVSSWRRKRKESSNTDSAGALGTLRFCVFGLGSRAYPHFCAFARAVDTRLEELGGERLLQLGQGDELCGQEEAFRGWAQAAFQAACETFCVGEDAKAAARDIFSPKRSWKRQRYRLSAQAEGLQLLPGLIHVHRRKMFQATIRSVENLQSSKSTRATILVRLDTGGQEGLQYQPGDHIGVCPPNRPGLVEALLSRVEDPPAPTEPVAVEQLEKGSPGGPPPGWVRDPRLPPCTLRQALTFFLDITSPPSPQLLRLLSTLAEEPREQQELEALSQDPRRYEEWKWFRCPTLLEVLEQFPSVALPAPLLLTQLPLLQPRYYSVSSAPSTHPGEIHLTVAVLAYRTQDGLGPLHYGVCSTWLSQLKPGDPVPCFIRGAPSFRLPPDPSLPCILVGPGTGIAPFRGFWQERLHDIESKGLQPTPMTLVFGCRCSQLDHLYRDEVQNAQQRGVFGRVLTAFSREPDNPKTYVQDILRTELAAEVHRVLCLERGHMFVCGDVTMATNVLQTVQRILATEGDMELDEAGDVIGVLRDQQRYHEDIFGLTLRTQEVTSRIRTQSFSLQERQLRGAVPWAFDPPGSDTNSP
The experiment in a line: Inhibition of human eNOS expressed in Sf9 cells assessed as reduction in conversion of [3H]L-arginine to [3H]L-citrulline preincubated for 15 mins by radiometric method.

As a reminder, the IC50 is the point on the concentration scale where inhibition reaches its midpoint.

Sequence of Nitric oxide synthase 1 (P29475 whole entry): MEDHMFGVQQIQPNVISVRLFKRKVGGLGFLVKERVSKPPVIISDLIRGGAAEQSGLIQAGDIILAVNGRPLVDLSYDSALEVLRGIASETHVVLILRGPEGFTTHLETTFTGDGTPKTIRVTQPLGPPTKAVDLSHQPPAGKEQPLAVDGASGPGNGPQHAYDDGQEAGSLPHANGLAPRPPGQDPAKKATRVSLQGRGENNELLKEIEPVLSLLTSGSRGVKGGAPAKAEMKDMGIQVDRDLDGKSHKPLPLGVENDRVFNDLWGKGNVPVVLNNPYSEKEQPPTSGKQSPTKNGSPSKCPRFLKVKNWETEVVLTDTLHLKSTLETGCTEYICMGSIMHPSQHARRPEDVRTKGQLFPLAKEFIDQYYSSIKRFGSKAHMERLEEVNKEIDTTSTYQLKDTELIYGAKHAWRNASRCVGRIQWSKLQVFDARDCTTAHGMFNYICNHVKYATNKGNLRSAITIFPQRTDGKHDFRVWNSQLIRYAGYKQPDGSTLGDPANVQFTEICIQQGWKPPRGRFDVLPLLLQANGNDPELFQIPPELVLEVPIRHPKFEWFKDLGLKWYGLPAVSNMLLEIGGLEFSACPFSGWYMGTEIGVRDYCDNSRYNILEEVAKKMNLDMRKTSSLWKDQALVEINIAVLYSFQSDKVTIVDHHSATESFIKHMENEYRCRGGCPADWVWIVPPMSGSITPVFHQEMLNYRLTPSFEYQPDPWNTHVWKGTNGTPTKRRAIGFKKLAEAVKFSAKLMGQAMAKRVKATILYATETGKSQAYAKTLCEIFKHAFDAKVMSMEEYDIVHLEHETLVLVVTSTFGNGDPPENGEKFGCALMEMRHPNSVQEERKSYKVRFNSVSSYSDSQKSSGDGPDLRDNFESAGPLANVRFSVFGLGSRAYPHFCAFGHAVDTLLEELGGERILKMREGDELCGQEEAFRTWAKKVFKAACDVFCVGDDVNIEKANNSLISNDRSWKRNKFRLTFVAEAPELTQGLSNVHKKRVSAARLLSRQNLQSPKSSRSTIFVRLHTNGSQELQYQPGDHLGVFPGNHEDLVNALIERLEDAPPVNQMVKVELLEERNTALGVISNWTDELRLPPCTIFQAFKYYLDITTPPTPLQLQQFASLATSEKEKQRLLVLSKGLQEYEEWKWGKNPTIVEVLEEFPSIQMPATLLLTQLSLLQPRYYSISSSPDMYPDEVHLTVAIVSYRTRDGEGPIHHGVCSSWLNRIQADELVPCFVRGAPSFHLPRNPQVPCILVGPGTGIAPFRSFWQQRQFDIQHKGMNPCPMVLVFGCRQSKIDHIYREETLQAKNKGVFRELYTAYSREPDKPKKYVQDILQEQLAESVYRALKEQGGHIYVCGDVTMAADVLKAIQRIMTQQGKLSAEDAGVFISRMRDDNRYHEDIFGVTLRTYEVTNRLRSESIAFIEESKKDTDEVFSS
Sequence of Nitric oxide synthase, inducible (P35228 whole entry): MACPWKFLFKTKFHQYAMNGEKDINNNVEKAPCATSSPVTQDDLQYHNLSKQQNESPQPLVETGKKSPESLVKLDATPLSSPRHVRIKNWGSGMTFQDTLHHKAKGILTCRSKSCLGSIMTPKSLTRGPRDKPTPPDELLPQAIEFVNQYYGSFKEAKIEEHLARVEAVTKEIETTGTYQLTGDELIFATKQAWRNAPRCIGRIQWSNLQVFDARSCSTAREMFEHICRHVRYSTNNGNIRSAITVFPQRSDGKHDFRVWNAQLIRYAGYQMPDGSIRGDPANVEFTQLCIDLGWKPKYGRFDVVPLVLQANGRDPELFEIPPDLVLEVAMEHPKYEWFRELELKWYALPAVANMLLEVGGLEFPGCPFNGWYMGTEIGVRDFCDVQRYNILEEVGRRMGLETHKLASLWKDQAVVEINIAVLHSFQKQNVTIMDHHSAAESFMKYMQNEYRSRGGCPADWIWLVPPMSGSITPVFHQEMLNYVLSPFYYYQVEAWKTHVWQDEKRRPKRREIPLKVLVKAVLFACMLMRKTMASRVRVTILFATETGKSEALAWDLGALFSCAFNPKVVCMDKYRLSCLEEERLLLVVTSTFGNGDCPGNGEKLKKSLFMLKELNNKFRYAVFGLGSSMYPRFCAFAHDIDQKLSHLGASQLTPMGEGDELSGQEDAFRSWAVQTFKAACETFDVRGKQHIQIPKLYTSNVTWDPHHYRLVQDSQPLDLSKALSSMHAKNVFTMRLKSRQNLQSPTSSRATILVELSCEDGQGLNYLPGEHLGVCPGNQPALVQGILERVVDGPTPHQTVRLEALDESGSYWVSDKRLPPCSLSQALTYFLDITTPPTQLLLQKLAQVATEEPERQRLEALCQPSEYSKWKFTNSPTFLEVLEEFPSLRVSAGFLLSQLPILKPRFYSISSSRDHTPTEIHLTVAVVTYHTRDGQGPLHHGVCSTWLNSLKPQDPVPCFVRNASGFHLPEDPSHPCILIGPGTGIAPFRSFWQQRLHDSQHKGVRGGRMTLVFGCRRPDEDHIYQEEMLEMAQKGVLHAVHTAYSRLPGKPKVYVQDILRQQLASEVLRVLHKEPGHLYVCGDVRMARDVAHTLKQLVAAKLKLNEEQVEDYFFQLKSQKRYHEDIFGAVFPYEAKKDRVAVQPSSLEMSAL

Consider `CNCCN1CCCc2cc(NC(=N)c3cccs3)ccc21`, for which the IC50 in assay [1] is 0.176 µM.

Turning to `N=C(Nc1ccc2c(c1)CCCN2C1CCNC1)c1cccs1` (racemic), the IC50 in assay [2] is > 30 µM.

Take `CNCCCN1CCCc2cc(NC(=N)c3cccs3)ccc21`: the results for the 50% inhibitory concentration (IC50) in assay [3] and in assay [2] were > 100 µM and > 30 µM, respectively.

Turning to `CN1CCC[C@H]1CCN1CCCc2cc(NC(=N)c3cccs3)ccc21`, the concentration for half-maximal inhibition (IC50) in assay [2] worked out at 4.7 µM.

In the case of `CCNCCN1CCCc2cc(NC(=N)c3cccs3)ccc21`, the IC50 was 0.139 µM in assay [1], > 100 µM in assay [3], > 30 µM in assay [2] and 46.5 µM in assay [4].

With `N=C(Nc1ccc2c(c1)CCCN2CCNCCO)c1cccs1`, the IC50 in assay [1] was 0.115 µM; in assay [3] it was 73 µM; in assay [2] it was > 30 µM; in assay [4], 32.9 µM.

As for `CC(C)NCCN1CCCc2cc(NC(=N)c3cccs3)ccc21`, the IC50 turned out to be 0.267 µM in assay [1], 89.4 µM in assay [3] and 27.5 µM in assay [2].

For the compound `N=C(Nc1ccc2c(c1)CCCN2CCCNCCO)c1cccs1`, the half-maximal inhibitory concentration (IC50) was 0.169 µM in assay [1], > 100 µM in assay [3], > 30 µM in assay [2] and 39.2 µM in assay [4].

In the case of `CN(CCO)CCN1CCCc2cc(NC(=N)c3cccs3)ccc21`, the IC50 in assay [1] is 0.133 µM; in assay [3] it was > 100 µM.

For the compound `CCN(C)CCN1CCCc2cc(NC(=N)c3cccs3)ccc21`, the figures for the IC50 in assay [1], in assay [3] and in assay [2] were 0.097 µM, > 100 µM and 4.5 µM, respectively.

These data come from ChEMBL document CHEMBL2163286, “1,2,3,4-tetrahydroquinoline-based selective human neuronal nitric oxide synthase (nNOS) inhibitors: lead optimization studies resulting in the identification of N-(1-(2-(methylamino)ethyl)-1,2,3,4-tetrahydroquinolin-6-yl)thiophene-2-carboximidamide as a preclinical development candidate” (J Med Chem, 2012).
